Source: patent US6653327B2, “Cross-regulin composition of tumeric-derived tetrahydrocurcuminoids for skin lightening and protection against UVB rays” (Sabinsa Corporation, priority 1999, dated 2003)

Tests used:
[1] = test system: UVB-induced sunburn cells and p21 protein in epidermis; experiment: UVB-induced formation of sunburn cells and p21 protein levels in epidermis; format: in vivo, SKH-1 mice; settings: 8 hours after UVB
Protocol: Female Sencar mice (5 mice per group) were treated topically with 100 ul acetone or inhibitor in acetone at 5 min before a single dose of UVB (60 mJ/cm2) irradiation. The mice were killed 8 hours after UVB irradiation, and the skin biopsies were evaluated for sunburn cells and p21 protein.

[2] = test system: TPA-induced ear edema; experiment: TPA-induced ear edema in mice (ear punch weight); format: in vivo, Female CF-1 mice; settings: 5 hours; for Wg/punch: mean SE
Protocol: Applicants have postulated that the crossregulin composition of the invention is an optimal composition for protecting and preserving healthy living cells and for preventing cytoskeletons of the healthy living cells from being damaged by TPA and TPA-like tumor promoters. In an experiment conducted in vivo, the ear skin of Female CF-1 mice was treated with either 20 microliters acetone, TPA in acetone or TPA with Tetrahydrocurcuminoids of the invention [THC1], known Tetrahydrocurcuminoids [THC2] and known pure (synthetic) Tetrahydrocurcumin [THC3].
Five hours later the mice were sacrificed and ear punches were weighted (the higher the weight, score the more severe the inflammation of the treated ear-skin). Based on the weight score of the ear punches, the percent of inflammation inhibition was calculated. Protection against inflammation in decreasing order was furnished by THC1 of the invention, followed by THC2 of the prior art, and finally followed by THC3. […] Prior art, as exemplified by the research data, cannot accomplish inhibition of the TPA induced ear edema above 80%. More than 80% inhibition of TPA-induced ear edema is necessary to prevent crosslinking of proteins which could trigger skin cancer. Therefore crossregulin action is not an inherent part of just any composition of THCs, but it is a specific composition that affords inhibition of the TPA mechanism by more than 80%.

[3] = 10 uM topical 5 min before UVB (60 mJ/cm2)
[4] = 20 uM topical 5 min before UVB (60 mJ/cm2)

SMILES | % p21 [1, 3] [%] | Number of positive cells per 1 cm slide (p21) [1, 3] | Number of sunburn cells per 1 cm slide [1, 3] | Percent Of Sunburn cells [1, 3] | % p21 [1, 4] [%] | Number of positive cells per 1 cm slide (p21) [1, 4] | Number of sunburn cells per 1 cm slide [1, 4] | Percent Of Sunburn cells [1, 4] | Wg/punch ([2]; dose 0.36 mg topical with TPA (1 nmol) in acetone on both ears) | % inhibition of TPA-induced ear edema ([2]; dose 0.36 mg topical with TPA (1 nmol)) [%] | Wg/punch ([2]; dose 0.12 topical with TPA (1 nmol) in acetone on both ears) | % inhibition of TPA-induced ear edema ([2]; dose 0.12 topical with TPA (1 nmol)) [%]
O=C(CC(=O)c1ccccc1)c1ccccc1 [DBM, dibenzoylmethane] | 1.2 | 33.5 ± 7.49 | 13.2 ± 5.35 | 1.2 | 2.2 | 60.6 ± 12.9 | 8.6 ± 1.78 | 0.9 |  |  |  | 
COc1cc(CCC(=O)CC(=O)CCc2ccc(O)c(OC)c2)ccc1O [THC3, tetrahydrocurcumin] |  |  |  |  |  |  |  |  | 8.1 ± 0.3 | 77.2 | 7.8 ± 0.3 | 81.0
